Literature values as cited in patent US20050032677A1, “Fungicidal and/or bactericidal composition, production process thereof and sterilization method using the composition” (priority 2001, published 2005).
Read-outs that look alike come from different tables or passages of the source. *1 amine or outer side, *2 acyl side, *3 side chain or, on linkers, in order; H or OH if unused. Where a SMILES comes first, the peptide text is derived from it. Bridges are numbered along the chain shown (N, C = ends). [ ]: non-standard residue; d: D form. X1 = CC(C)CCCCCCCCC[C@H](CC(=O)[*:1])O[*:2]

Legend:
[1] = tested on: erythrocyte membrane; conditions: relative to mixing iturin and surfactin in the latter ratio (2:1)
[2] = tested on: erythrocyte; conditions: relative to mixing iturin and surfactin
[3] = tested on: mouse; conditions: hypodermic injection to a mouse

Row | Compound | critical micelle concentration (CMC) (aqueous solution) [µM] | critical micelle concentration (CMC) (in a 0.1M sodium hydrogencarbonate solution) [µM] | amount bound to the erythrocyte membrane relative to iturin:surfactin 2:1 [1] | hemolysis activity relative to iturin and surfactin mixture [2] | LD50 [3] [mg/kg]
1 | CC(C)CCCCCCCCC[C@@H]1CC(=O)N[C@@H](CCC(=O)O)C(=O)N[C@@H](CC(C)C)C(=O)N[C@H](CC(C)C)C(=O)N[C@@H](C(C)C)C(=O)N[C@@H](CC(=O)O)C(=O)N[C@H](CC(C)C)C(=O)N[C@@H](CC(C)C)C(=O)O1 [surfactin] (EL[dL]VD[dL]L; linker N-C via X1) | 250 | 10 | – | – | –
2 | iturin | 40 | – | at most a half | about one sixth | 157
